Measured values from ChEMBL document CHEMBL1134007, “Synthesis and structure-activity relationships of 1-phenylpyrazoles as xanthine oxidase inhibitors” (Bioorg Med Chem Lett, 2001).

Experiments:
[1] = target: T1, Xanthine dehydrogenase/oxidase (Bos taurus, UniProt P80457); assay: In vitro inhibitory concentration against Xanthine oxidase
[2] = target: T1, Xanthine dehydrogenase/oxidase; assay: In vitro percent inhibition against Xanthine oxidase at concentration of 10000 nmol/L
Rattus norvegicus [3] = assay: Tested for hypouricemic effect in potassium oxonate (uricase inhibitor) treated (po) rats for 0-24 hr expressed as ED20; type: functional
Rattus norvegicus [4] = assay: Tested for hypouricemic effect in potassium oxonate (uricase inhibitor) treated (po)rats for 0-6 hr expressed as ED20; type: functional
[5] = In vivo CL/F determined; type: ADME, organism-based; details: rat
[6] = Tmax determined after 3 mg/kg oral administration in potassium oxonate treated rats; type: ADME, organism-based; parameters: dose 3 mg/kg, route oral; details: rat, in vivo
Rattus norvegicus [7] = assay: Tested for hypouricemic effect in potassium oxonate (uricase inhibitor) treated (po) rats for 0-6 hr expressed as ED20; type: functional
[8] = Tmax determined after 0.3 mg/kg oral administration in potassium oxonate treated rats; type: ADME, organism-based; parameters: dose 0.3 mg/kg, route oral; details: rat, in vivo

T1 sequence (P80457 whole entry): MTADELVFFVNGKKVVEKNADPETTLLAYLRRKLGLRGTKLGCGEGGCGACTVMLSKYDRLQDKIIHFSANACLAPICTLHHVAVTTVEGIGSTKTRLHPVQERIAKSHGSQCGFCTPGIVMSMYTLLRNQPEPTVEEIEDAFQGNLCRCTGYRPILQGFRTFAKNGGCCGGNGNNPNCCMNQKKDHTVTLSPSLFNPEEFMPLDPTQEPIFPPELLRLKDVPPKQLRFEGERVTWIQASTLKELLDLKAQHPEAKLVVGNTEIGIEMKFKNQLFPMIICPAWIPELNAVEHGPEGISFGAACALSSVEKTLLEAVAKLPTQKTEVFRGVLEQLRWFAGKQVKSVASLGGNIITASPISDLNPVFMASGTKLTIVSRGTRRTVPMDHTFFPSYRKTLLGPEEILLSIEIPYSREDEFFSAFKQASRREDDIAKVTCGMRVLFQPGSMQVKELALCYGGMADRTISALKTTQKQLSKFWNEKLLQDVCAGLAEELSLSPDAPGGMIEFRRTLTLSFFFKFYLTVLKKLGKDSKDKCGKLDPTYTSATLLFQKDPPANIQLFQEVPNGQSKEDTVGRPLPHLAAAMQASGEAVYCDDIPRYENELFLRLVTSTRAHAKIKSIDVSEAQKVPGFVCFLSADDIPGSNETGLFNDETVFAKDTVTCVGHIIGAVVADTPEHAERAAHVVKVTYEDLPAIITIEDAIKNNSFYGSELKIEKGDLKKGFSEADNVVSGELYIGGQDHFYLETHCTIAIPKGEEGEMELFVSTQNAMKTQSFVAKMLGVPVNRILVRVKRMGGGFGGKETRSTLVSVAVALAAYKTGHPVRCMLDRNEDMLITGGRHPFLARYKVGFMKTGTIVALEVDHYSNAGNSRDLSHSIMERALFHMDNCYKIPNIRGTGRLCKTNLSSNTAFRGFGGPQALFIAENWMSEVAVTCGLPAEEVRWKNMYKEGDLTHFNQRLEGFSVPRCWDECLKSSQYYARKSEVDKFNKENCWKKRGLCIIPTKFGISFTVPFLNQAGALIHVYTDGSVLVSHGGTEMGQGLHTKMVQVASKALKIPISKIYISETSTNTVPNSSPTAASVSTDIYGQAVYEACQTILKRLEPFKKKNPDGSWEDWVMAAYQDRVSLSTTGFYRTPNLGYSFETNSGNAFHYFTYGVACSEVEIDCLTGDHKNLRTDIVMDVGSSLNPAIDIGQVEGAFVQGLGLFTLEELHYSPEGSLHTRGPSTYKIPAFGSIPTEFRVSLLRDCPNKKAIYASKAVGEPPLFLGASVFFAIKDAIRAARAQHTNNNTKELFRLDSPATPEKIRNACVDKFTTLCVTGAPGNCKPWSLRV

Row | Structure (SMILES) | IC50 [1] | inhibition at 10 µM [2] | ED20 (Rattus norvegicus [3]) | also measured
1 | CN(C)CCOc1ccc(-n2cc(C(=O)O)cn2)cc1C#N | 700 nM |  |  | 
2 | CCOC(=O)c1cnn(-c2ccc(OCC(C)C)c(C#N)c2)c1 |  | < 50% |  | 
3 | Oc1ncnc2[nH]ncc12 [ALLOPURINOL] |  |  | > 10 mg/kg | ED20 (Rattus norvegicus [4]): 3.5 mg/kg
4 | CC(C)(C)COc1ccc(-n2cc(C(=O)O)cn2)cc1C#N |  |  | 1.4 mg/kg | CL/F [5]: 2 mL/min/kg; Tmax [6]: 3.5 h; ED20 (Rattus norvegicus [7]): 0.55 mg/kg; Tmax [8]: 3.5 h
5 | CC(C)COc1ccc(-n2cc(C(=O)O)cn2)cc1C#N |  |  | > 10 mg/kg | CL/F [5]: 9.83 mL/min/kg; Tmax [6]: 1.3 h; ED20 (Rattus norvegicus [7]): 2.5 mg/kg; Tmax [8]: 1.1 h
6 | O=C(O)c1cnn(-c2ccc(Cl)cc2)c1 |  | < 50% |  | 

Now from value to compound, other results behind:

Row | IC50 [1] | inhibition at 10 µM [2] | Structure (SMILES) | ED20 (Rattus norvegicus [3]) | also measured
7 | 33 nM |  | CC(C)COc1ccc(-n2cc(C(=O)O)cn2)cc1[N+](=O)[O-] |  | 
8 | 460 nM |  | COc1ccc(-n2cc(C(=O)O)cn2)cc1C#N |  | 
9 | 1500 nM |  | N#Cc1cc(-n2cc(C(=O)O)cn2)ccc1OCC(=O)O |  | 
10 |  | < 50% | COc1ccc(-n2cc(C(=O)O)cn2)cc1 |  | 
